Data as given in PubChem BioAssay AID1963869 (Molecular Pharmacology Branch, DTP, NCI, 2024).

Tested on: KRAS patient-derived spheroids with HUVEC/MSC, viability
Assay: Anticancer human tumor 323965-272-R-J2-PDC patient-derived pancreatic carcinoma cell line growth inhibition [KRAS2]
Conditions: for viability, T/C: stronger effect = lower value
Outline: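 KRAS-mutant tumor cells were grown as spheroids with HUVEC endothelial cells and human MSCs as stroma. Targeted agents were tested alone and with KRAS pathway inhibitors. Doses started at or near clinical Cmax, or 10 microM, descending half-log.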

[1] = curve of first compound, second compound 0.1 µM
[2] = curve of first compound, second compound 0.316 µM
[3] = curve of first compound, second compound 1 µM
[4] = curve of first compound, second compound 3.16 µM
[5] = second compound 0.1 µM, first compound 0.0316 µM
[6] = second compound 0.1 µM, first compound 0.1 µM
[7] = second compound 0.1 µM, first compound 0.316 µM
[8] = second compound 0.1 µM, first compound 1 µM
[9] = second compound 0.1 µM, first compound 3.16 µM
[10] = second compound 0.1 µM, first compound 10 µM
[11] = second compound 0.316 µM, first compound 0.0316 µM
[12] = second compound 0.316 µM, first compound 0.1 µM
[13] = second compound 0.316 µM, first compound 0.316 µM
[14] = second compound 0.316 µM, first compound 1 µM
[15] = second compound 0.316 µM, first compound 3.16 µM
[16] = second compound 0.316 µM, first compound 10 µM
[17] = second compound 1 µM, first compound 0.0316 µM
[18] = second compound 1 µM, first compound 0.1 µM
[19] = second compound 1 µM, first compound 0.316 µM
[20] = second compound 1 µM, first compound 1 µM
[21] = second compound 1 µM, first compound 3.16 µM
[22] = second compound 1 µM, first compound 10 µM
[23] = second compound 3.16 µM, first compound 0.0316 µM
[24] = second compound 3.16 µM, first compound 0.1 µM
[25] = second compound 3.16 µM, first compound 0.316 µM
[26] = second compound 3.16 µM, first compound 1 µM
[27] = second compound 3.16 µM, first compound 3.16 µM
[28] = second compound 3.16 µM, first compound 10 µM
[29] = curve of first compound, second compound 10 µM
[30] = second compound 10 µM, first compound 0.0316 µM
[31] = second compound 10 µM, first compound 0.1 µM
[32] = second compound 10 µM, first compound 0.316 µM
[33] = second compound 10 µM, first compound 1 µM
[34] = second compound 10 µM, first compound 3.16 µM
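Further: spheroids exposed to agents for 7 days.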
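Wherever viability, T/C is given: 100% = DMSO vehicle control viability.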

Row | SMILES | IC50 [1] [nM] | IC50 [2] [nM] | IC50 [3] [nM] | IC50 [4] [nM] | viability, T/C [5] [%] | viability, T/C [6] [%] | viability, T/C [7] [%] | viability, T/C [8] [%] | viability, T/C [9] [%] | viability, T/C [11] [%] | viability, T/C [12] [%] | viability, T/C [13] [%] | viability, T/C [14] [%] | viability, T/C [15] [%] | viability, T/C [17] [%] | viability, T/C [18] [%] | viability, T/C [19] [%] | viability, T/C [20] [%] | viability, T/C [21] [%] | viability, T/C [23] [%] | further results
1 | CC(C)NCC(C(=O)N1CCN(c2ncnc3c2C(C)CC3O)CC1)c1ccc(Cl)cc1 (configuration not stated) + C=CC(=O)N1CCN(c2nc(OCC3CCCN3C)nc3c2CCN(c2cccc4cccc(C)c24)C3)CC1CC#N | 251 | 132 | 118 | < 31.6 | 64.5 | 54.9 | 50.2 | 39.2 | 30.8 | 58.8 | 50.6 | 44.1 | 31.8 | 26.2 | 57.7 | 53.6 | 38.6 | 33.4 | 26.4 | 10.2 | IC50 (curve of first compound, second compound 0.0316 µM): 489 nM; viability, T/C (second compound 0.0316 µM, first compound 0.0316 µM): 64.4%; viability, T/C (second compound 0.0316 µM, first compound 0.1 µM): 62.4%; viability, T/C (second compound 0.0316 µM, first compound 0.316 µM): 54.3%; viability, T/C (second compound 0.0316 µM, first compound 1 µM): 42.2%; viability, T/C (second compound 0.0316 µM, first compound 3.16 µM): 35.7%; viability, T/C (second compound 0.0316 µM, first compound 10 µM): 29.8%; viability, T/C [10]: 29.1%; viability, T/C [16]: 26.3%; viability, T/C [22]: 23.1%; viability, T/C [24]: 6.16%; viability, T/C [25]: 5.23%; viability, T/C [26]: 4.82%; viability, T/C [27]: 3.02%; viability, T/C [28]: 1.82%
2 | CC(=O)OC12COC1CC(O)C1(C)C(=O)C(O)C3=C(C)C(OC(=O)C(O)C(NC(=O)OC(C)(C)C)c4ccccc4)CC(O)(C(OC(=O)c4ccccc4)C21)C3(C)C (configuration not stated) | – | – | – | – | – | – | – | – | – | – | – | – | – | – | – | – | – | – | – | – | viability, T/C (compound 0.01 µM): 35.9% [middle of 5 runs]; viability, T/C (compound 0.0316 µM): 35.4% [middle of 5 runs]; viability, T/C (compound 0.1 µM): 32.5% [middle of 5 runs]; viability, T/C (compound 0.316 µM): 36.5% [middle of 5 runs]; viability, T/C (compound 1 µM): 34% [middle of 5 runs]; viability, T/C (compound 3.16 µM): 34.3% [middle of 5 runs]; IC50 (curve of compound): < 10 nM
3 | Cn1nccc1Nc1nccc(-c2cc3c(s2)C(C)(C)N(CCN2CCOCC2)C3=O)n1 + COc1cc2nc(C)nc(NC(C)c3cc(N)cc(C(F)(F)F)c3)c2cc1OC1CCOC1 | 343 | 258 | 188 | 324 | 70.7 | 76.1 | 50.3 | 38.7 | 30.8 | 75.3 | 61.8 | 48.1 | 34.8 | 30.6 | 65.9 | 57.8 | 43 | 35.6 | 30 | 70.7 | IC50 [29]: 358 nM; viability, T/C [10]: 29.9%; viability, T/C [16]: 26.1%; viability, T/C [22]: 27.4%; viability, T/C [24]: 68.1%; viability, T/C [25]: 46.3%; viability, T/C [26]: 38%; viability, T/C [27]: 29.1%; viability, T/C [28]: 22.6%; viability, T/C [30]: 75.5%; viability, T/C [31]: 66.9%; viability, T/C [32]: 51.7%; viability, T/C [33]: 36.7%; viability, T/C [34]: 22.7%; viability, T/C (second compound 10 µM, first compound 10 µM): 24.9%
4 | CC(=O)OC12COC1CC(O)C1(C)C(=O)C(O)C3=C(C)C(OC(=O)C(O)C(NC(=O)OC(C)(C)C)c4ccccc4)CC(O)(C(OC(=O)c4ccccc4)C21)C3(C)C (configuration not stated) + C=CC(=O)N1CCN(c2nc(=O)n(-c3c(C)ccnc3C(C)C)c3nc(-c4c(O)cccc4F)c(F)cc23)C(C)C1 | < 10 | < 10 | < 10 | < 10 | 21.7 | 19.9 | 19.2 | 18.9 | 22.2 | 21.5 | 21.6 | 19.4 | 20.9 | 21.1 | 19.2 | 19.6 | 17.4 | 18.7 | 19.7 | 21.9 | IC50 [29]: < 10 nM; viability, T/C (second compound 0.1 µM, first compound 0.01 µM): 22.7%; viability, T/C (second compound 0.316 µM, first compound 0.01 µM): 21.9%; viability, T/C (second compound 1 µM, first compound 0.01 µM): 21.3%; viability, T/C (second compound 3.16 µM, first compound 0.01 µM): 19.7%; viability, T/C [24]: 17.6%; viability, T/C [25]: 19.6%; viability, T/C [26]: 18.9%; viability, T/C [27]: 18.5%; viability, T/C (second compound 10 µM, first compound 0.01 µM): 21.3%; viability, T/C [30]: 19.6%; viability, T/C [31]: 19.8%; viability, T/C [32]: 15.6%; viability, T/C [33]: 16%; viability, T/C [34]: 16.7%
